# Target: T1, MAL^TIR (Homo sapiens, UniProt P58753)
# T1 construct: MAL (residues 79–221); 6xHis; made in house; host or cells: E. coli BL21 (DE3)
# Test: T‐Surf phage library (P8 and P3) selection against MAL^TIR, four rounds, NGS read counts
# Assay type: binding
# Conditions: for P3_MAL Rank (after) / P3_MAL Rank (before): P3 library; for P8_MAL Rank (after) / P8_MAL Rank (before): P8 library; for Population: 4th round of selection against MAL TIR, share of NGS reads
# Outline: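 Library of 190 946 TIR‐derived peptides on P8 or P3 was panned on immobilized TIR domain coated at 5 µg mL^−1, BSA‐blocked, 1 h binding at RT, PBS/0.5% Tween‐20 washes, HCl elution, TG1 amplification. Fourth‐round pools were PCR‐barcoded, sequenced (100 bp paired‐end, Phred ≥30), and peptides ranked by read counts.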
# [1] = selection against MAL, rank after grouping
# [2] = selection against MAL, rank before grouping
# [3] = 4R selection against MAL, rank after grouping
# [4] = 4R selection against MAL, rank before grouping
# [5] = P8_MAL pool: P8 T-Surf phage library
# [6] = P3_MAL: rank by count after grouping
# [7] = P3_MAL: rank by count before grouping
# [8] = selection against MAL TIR, rank by count after grouping
# [9] = selection against MAL TIR, rank by count before grouping
# [10] = P3_MAL pool: P3 T-Surf phage library
# [11] = selection against MAL, rank by count after grouping
# [12] = selection against MAL, rank by count before grouping
# [13] = P8_MAL: rank by count after grouping
# [14] = P8_MAL: rank by count before grouping
# T1 sequence (P58753 79-221): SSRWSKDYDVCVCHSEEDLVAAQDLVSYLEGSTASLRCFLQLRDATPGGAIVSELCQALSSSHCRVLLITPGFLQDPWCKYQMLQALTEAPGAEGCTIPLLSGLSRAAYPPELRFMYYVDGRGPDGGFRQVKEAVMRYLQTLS
sequence,measurement,setting,value
WRCLNFVPRCIMCCR,P3_MAL Rank (after),[1],482
same,P3_MAL Rank (before),[2],1287
WFYDRLVRLILRDTKV,P8_MAL Rank (after),[3],647
same,P8_MAL Rank (before),[4],1141
AFLYPFLINLTHPTIP,P8_MAL Rank (after),[1],512
same,P8_MAL Rank (before),[2],1816
AFPDTFLIKLPHPTNV,P8_MAL Rank (after),[3],611
same,P8_MAL Rank (before),[4],1918
AFFWAQLKNVLGNPTM,Population,[5],0.00278%
RNFVAYLFQALAKKGS,P8_MAL Rank (after),[3],591
same,P8_MAL Rank (before),[4],2191
YAFTGHLHRSLVQSGV,Rank (after),[6],154
same,Rank (before),[7],1381
YAFTGHLHGSLLQRRV,P3_MAL Rank (after),[3],670
same,P3_MAL Rank (before),[4],1376
YAFTGHLHRYLQAKDH,P3_MAL Rank (after),[1],496
same,P3_MAL Rank (before),[2],1419
KSILDTEARIWGWLFA,P3_MAL Rank (after),[8],248
same,P3_MAL Rank (before),[9],3718
GRYGELFMTETDVREG,Rank (after),[6],403
same,Rank (before),[7],1763
RLLKWKEEMHQFHSWV,P3_MAL Rank (after),[8],206
same,P3_MAL Rank (before),[9],2531
LFWELLRQALGSRNRL,P8_MAL Rank (after),[1],488
same,P8_MAL Rank (before),[2],2152
SSFREGLWRLLELNKK,Population,[10],0.00488%
HQAFTGHLHRYLVQRGV,P3_MAL Rank (after),[8],192
same,P3_MAL Rank (before),[9],979
YAFTGHLHRYLMPRGV,P3_MAL Rank (after),[11],698
same,P3_MAL Rank (before),[12],1420
WFYERLLNLILRDTKV,Rank (after),[13],96
same,Rank (before),[14],1250
WFMMKFRTVLGKPTM,P8_MAL Rank (after),[8],216
same,P8_MAL Rank (before),[9],760
RVFLSHLRHHLQAKDH,Population,[10],0.0124%
SSCLEGLWRLLELSKK,Rank (after),[6],476
same,Rank (before),[7],3209
YFLHFLLYDHLRWLGIRAFL,P8_MAL Rank (after),[1],572
same,P8_MAL Rank (before),[2],1498
RGFLSHMRHPLQAKDH,P3_MAL Rank (after),[8],281
same,P3_MAL Rank (before),[9],2398
LFFWECLKKLLRRDGR,P8_MAL Rank (after),[3],601
same,P8_MAL Rank (before),[4],2071
EKIVEWVWGKVHRTFK,P8_MAL Rank (after),[8],207
same,P8_MAL Rank (before),[9],896
WFYERLVKLVLRDTKV,Rank (after),[13],166
same,Rank (before),[14],1244
RNLVAYLLQPRANKCI,P8_MAL Rank (after),[3],603
same,P8_MAL Rank (before),[4],2242
TFLATLYNALAQAGIH,Rank (after),[13],449
same,Rank (before),[14],2620
PFFWEHLRHLLRSHTL,Rank (after),[13],480
same,Rank (before),[14],2325
WLYVRLVSLILRDTKV,Rank (after),[13],144
same,Rank (before),[14],1392
ERLFSEPLNVNKDLLG,Rank (after),[6],434
same,Rank (before),[7],2032
LFFWASLNKLLRSDGR,P8_MAL Rank (after),[3],648
same,P8_MAL Rank (before),[4],2065
YAFTGHLRRYLVLRGV,P3_MAL Rank (after),[1],509
same,P3_MAL Rank (before),[2],1369
LFLWESLKHLLRSDSL,P8_MAL Rank (after),[11],719
same,P8_MAL Rank (before),[12],2147
WFYELLVSLLLRDTKV,P8_MAL Rank (after),[8],221
same,P8_MAL Rank (before),[9],1149
RWFLDELVKIMERKRT,P8_MAL Rank (after),[8],218
same,P8_MAL Rank (before),[9],926
DFSHFWLFEAGGDAAI,P8_MAL Rank (after),[1],532
same,P8_MAL Rank (before),[2],1981
WCYERRVSLILRETKV,Rank (after),[13],385
same,Rank (before),[14],1403
RHNFIGYLYQALYRIG,P8_MAL Rank (after),[11],723
same,P8_MAL Rank (before),[12],2174
AFRYTFLIILTDPTNF,P8_MAL Rank (after),[3],599
same,P8_MAL Rank (before),[4],1916
FLNFRAWMCVTIFWA,P3_MAL Rank (after),[11],677
same,P3_MAL Rank (before),[12],1176
AFLYTFLNTLTHPTNF,P8_MAL Rank (after),[8],209
same,P8_MAL Rank (before),[9],1867
RDFVAYLFQALANKGL,P8_MAL Rank (after),[3],640
same,P8_MAL Rank (before),[4],2171
RNSVAYLFQALADKGI,P8_MAL Rank (after),[8],270
same,P8_MAL Rank (before),[9],2247
RNFVAYLFRARANKGI,P8_MAL Rank (after),[8],225
same,P8_MAL Rank (before),[9],2193
ESILNQLRRSSHSISN,P3_MAL Rank (after),[1],542
same,P3_MAL Rank (before),[2],2054
AFLYTFLNNLTHPTNF,Population,[5],0.00309%
TFLGHLYIAMVQAAIH,P8_MAL Rank (after),[1],528
same,P8_MAL Rank (before),[2],2559
PNLRTKVLSYLMRTKT,Population,[10],0.00376%
YAFTSHLHRSLVQRGV,P3_MAL Rank (after),[8],257
same,P3_MAL Rank (before),[9],1473
YAFTGHLRHHLQAKDH,Rank (after),[6],120
same,Rank (before),[7],394
TFLGPLLNALVQAGIH,Rank (after),[13],388
same,Rank (before),[14],2536
YLKLGYPWCWDRRRFA,P3_MAL Rank (after),[3],583
same,P3_MAL Rank (before),[4],1500
RWFWDKLIYALSRNTH,Rank (after),[6],471
same,Rank (before),[7],3228
NQWSNELTAAANLRGW,P3_MAL Rank (after),[1],575
same,P3_MAL Rank (before),[2],3420
RPLKWKEALHQFHSRV,P3_MAL Rank (after),[1],493
same,P3_MAL Rank (before),[2],2562
KRISEQLRPALNVRRP,P3_MAL Rank (after),[3],665
same,P3_MAL Rank (before),[4],3633
KIWGWRDALSRNPH,P3_MAL Rank (after),[11],762
same,P3_MAL Rank (before),[12],3640
AFLYTFLKNLTHTPTF,Rank (after),[13],410
same,Rank (before),[14],1876
YAFTGHVHRYMVQRGV,P3_MAL Rank (after),[8],229
same,P3_MAL Rank (before),[9],1362
SSFREGLWRPPELSEK,P3_MAL Rank (after),[11],748
same,P3_MAL Rank (before),[12],3167
YFLHFLLVSRAEAEFI,P8_MAL Rank (after),[1],565
same,P8_MAL Rank (before),[2],1499
SSFRKGLCRLLELSKK,Rank (after),[6],463
same,Rank (before),[7],3196
YVFTGNLHRYLMQLGV,P3_MAL Rank (after),[1],536
same,P3_MAL Rank (before),[2],1341
VEPTQVRKLRGAVEKV,P3_MAL Rank (after),[11],743
same,P3_MAL Rank (before),[12],1658
FLNFRGLVVRNYFLVH,P3_MAL Rank (after),[11],720
same,P3_MAL Rank (before),[12],1146
HQAFWERLWAKMQAPI,P3_MAL Rank (after),[3],659
same,P3_MAL Rank (before),[4],2860
RNLVAYLLQALANKGI,Rank (after),[13],451
same,Rank (before),[14],2244
AFLGEQLHTMVDKPTM,P8_MAL Rank (after),[1],491
same,P8_MAL Rank (before),[2],1776
AFLYTFLLNLTHPTHF,Rank (after),[13],162
same,Rank (before),[14],1829
RNFMSHLYQGLKNRGIFTF,P3_MAL Rank (after),[1],502
same,P3_MAL Rank (before),[2],2612
RNFVADLFQALADKGI,P8_MAL Rank (after),[3],666
same,P8_MAL Rank (before),[4],2308
KWFWDTLTYAPNLSPH,P3_MAL Rank (after),[3],672
same,P3_MAL Rank (before),[4],3487
YAFTGHLHRYLVRRSA,P3_MAL Rank (after),[1],561
same,P3_MAL Rank (before),[2],1392
MSHLYQGLKNRGI,Population,[10],0.00413%
PFLGHLSNALVQAGIH,Rank (after),[13],132
same,Rank (before),[14],2331
LFFWESLKQLLRSAGR,Population,[5],0.0034%
WFFEPLVILIPRDTKV,Rank (after),[13],411
same,Rank (before),[14],1115
WFYERLVSLILRNTKV,Population,[5],0.00309%
YVLHFLLFSRREPEYI,P8_MAL Rank (after),[1],487
same,P8_MAL Rank (before),[2],1524
WFYERFVSQIPRDTNL,P8_MAL Rank (after),[1],550
same,P8_MAL Rank (before),[2],1151
YLKWGYPWFWIVCVL,Rank (after),[13],143
same,Rank (before),[14],1546
AFLYSLLISLPETANI,P8_MAL Rank (after),[1],543
same,P8_MAL Rank (before),[2],1810
DSKLKKGESIAPALLR,P8_MAL Rank (after),[8],215
same,P8_MAL Rank (before),[9],1986
YLKWGYTRCWDRLRFA,Rank (after),[6],478
same,Rank (before),[7],1518
PVAHEISKKMQLFATI,P3_MAL Rank (after),[3],654
same,P3_MAL Rank (before),[4],2631
